In ChEMBL document CHEMBL1136434, “5-aryl-pyrazolo[3,4-b]pyridazines: potent inhibitors of glycogen synthase kinase-3 (GSK-3)” (Bioorg Med Chem Lett, 2003) one finds cKi data, which are given here for five molecules.

This assay addresses Cyclin-dependent kinase 2 (Homo sapiens) (UniProt P24941).

The structures appear in SMILES notation.

On to `CCN1CCC(C(=O)Nc2n[nH]c3nnc(-c4cccc(F)c4F)cc23)CC1`, for which the cKi came out at 450 nM. To `O=C(Nc1n[nH]c2nnc(-c3cccnc3)cc12)C1CC1` belongs 5 nM.

The molecule `CCN1CCC(CC(=O)Nc2n[nH]c3nnc(-c4cccc(F)c4F)cc23)CC1` came in with a cKi of 540 nM. As for `O=C(Nc1n[nH]c2nnc(-c3cccc(F)c3F)cc12)C1CCCC1`, the figure is 5 nM. As for `CN(C)CCCC(=O)Nc1n[nH]c2nnc(-c3ccccc3)cc12`, the figure is 1700 nM.
